Patent publication US20260191849A1, “PHARMACEUTICAL COMPOSITION FOR TREATMENT OF CANCER” (WIGEN BIOMEDICINE TECHNOLOGY (SHANGHAI) CO., LTD., priority 2022, published 2026)
pIC50: −log10 of the molar value. Where two headings read alike, the source gives them in different places.

Columns and labels:
Format in all cases: cell-based
[1] = tested on: HT29 cells; assay: Combined use of compound 257 or AMG650 with PLK1 inhibitor on HT29 cell viability, 168 h (Biological Example 7); details: for Maximum inhibition rate / Minimum inhibition rate / pIC50: HT29 cells; for pIC50: Homo sapiens, HT-29, 168 h
Experimental: HT29 cells were seeded on a 384-well plate at 3000 cells/well. After overnight adherence culture, DMSO or compound 257 or AMG650 serially diluted in a 1:5 ratio from 400 nM and a PLK1 inhibitor with a specified concentration were added. The cell viability was assessed 168 h after dosing by measuring the intracellular ATP content. The inhibition percentages of viable cells by the compounds were calculated by comparing with the DMSO group, and the IC50 values were also calculated.

[2] = tested on: HCT116 cells; assay: Combined use of compound 257 or AMG650 with PLK1 inhibitor on HCT116 cell viability, 168 h (Biological Example 8)
Experimental: HCT116 cells were seeded on a 384-well plate at 3000 cells/well. After overnight adherence culture, DMSO or compound 257 or AMG650 serially diluted in a 1:5 ratio from 10 μM and a PLK1 inhibitor with a specified concentration were added. The cell viability was assessed 168 h after dosing by measuring the intracellular ATP content. The inhibition percentages of viable cells by the compounds were calculated by comparing with the DMSO group, and the IC50 values were also calculated.

[3] = tested on: HT29 cells; assay: Combined use of compound 257 with PLK1 inhibitor (CYC140, TAK-960) on HT29 cell viability, 168 h (Biological Example 9); details: for Maximum inhibition rate / Minimum inhibition rate / pIC50 / inhibition: HT29 cells; for pIC50 / inhibition: Homo sapiens, HT-29, 168 h
Experimental: HT29 cells were seeded on a 384-well plate at 3000 cells/well. After overnight adherence culture, DMSO or compound 257 serially diluted in a 1:5 ratio from 400 nM and a PLK1 inhibitor with a specified concentration were added. The cell viability was assessed 168 h after dosing by measuring the intracellular ATP content. The inhibition percentages of viable cells by the compounds were calculated by comparing with the DMSO group, and the IC50 values were also calculated.

[4] = tested on: HT29 cells; assay: Combined use of compound 257, AMG650 or Compound A with PLK1 inhibitor on HT29 cell viability, 168 h (Biological Example 19); details: for pIC50: Homo sapiens, HT-29, 168 h, HT29 cells, read-out: IC50
Experimental: HT29 cells were seeded on a 384-well plate at 3000 cells/well.

[5] = tested on: HCT116 cells; assay: Combined use of compound 257, AMG650 or Compound A with PLK1 inhibitor on HCT116 cell viability, 168 h (Biological Example 20)
Experimental: HCT116 cells were seeded on a 384-well plate at 3000 cells/well. After overnight adherence culture, DMSO or compound 257, AMG650, or Compound A serially diluted in a 1:5 ratio from 400 nM and a PLK1 inhibitor with a specified concentration were added. The cell viability was assessed 168 h after dosing by measuring the intracellular ATP content. The inhibition percentages of viable cells by the compounds were calculated by comparing with the DMSO group, and the IC50 values were also calculated.

[6] = tested on: SK-OV-3 cells; assay: Combined use of compound 257 or AMG650 with PLK1 inhibitor on SK-OV-3 cell viability, 168 h (Biological Example 21); details: 168 h; for pIC50: Homo sapiens, SK-OV-3, 168 h, SK-OV-3 cells, read-out: IC50
Experimental: SK—OV-3 cells were seeded on a 384-well plate at 3000 cells/well. After overnight adherence culture, DMSO or compound 257 or AMG650 serially diluted in a 1:5 ratio from 400 nM and a PLK1 inhibitor with a specified concentration were added. The cell viability was assessed 168 h after dosing by measuring the intracellular ATP content. […] Furthermore, interactions between the drugs were also analyzed using the BLISS independence model, and the results are shown in FIG. 11 and FIG. 12.

[7] = tested on: HT29 cells; assay: Combined use of compound 257 or AMG650 with PLK1 inhibitor (Volasertib) on HT29 cell viability, 168 h (Biological Example 22); details: 168 h; for pIC50: Homo sapiens, HT-29, 168 h, HT29 cells, read-out: IC50
Experimental: HT29 cells were seeded on a 384-well plate at 3000 cells/well. After overnight adherence culture, DMSO or compound 257 or AMG650 serially diluted in a 1:5 ratio from 400 nM and a PLK1 inhibitor with a specified concentration were added. The cell viability was assessed 168 h after dosing by measuring the intracellular ATP content. […] Furthermore, interactions between the drugs were also analyzed using the BLISS independence model, and the results are shown in FIG. 15 and FIG. 16.

For `COc1ccc(NC(=O)c2ccc(NS(=O)(=O)CCO)cc2N2CCC3(CC2)CC3)nc1N1CCC(F)(F)CC1` [Compound 257], the Maximum inhibition rate ([1]; Volasertib 0 nM) was 85.3%, the Minimum inhibition rate ([1]; Volasertib 0 nM) was 3.2% and the Maximum inhibition rate ([1]; Volasertib 3.12 nM) was 94.6%. For the same compound, the Minimum inhibition rate ([1]; Volasertib 3.12 nM) was 1.8%, the Maximum inhibition rate ([1]; Volasertib 6.25 nM) was 94.4% and the Minimum inhibition rate ([1]; Volasertib 6.25 nM) was 0.5%. For the same compound, the pIC50 ([1]; Volasertib 0 nM) was 7.85, the pIC50 ([1]; Volasertib 3.12 nM) was 8.15 and the pIC50 ([1]; Volasertib 6.25 nM) was 8.55. The “inhibitory effect on HT-29 cells, combined use with the PLK1 inhibitor compared with monotherapy” value ([1]; Volasertib, in words) was “stronger inhibitory effect”, the pIC50 ([2]; HCT116 cells, Volasertib 3.12 nM) was less than 5.00 and the pIC50 ([2]; HCT116 cells, Volasertib 6.25 nM) was less than 5.00. The pIC50 ([2]; Homo sapiens, HCT-116, HCT116 cells, Volasertib 0 nM) was less than 5.00, the “synergistic effect on HCT116 cell viability, combined use with the PLK1 inhibitor” value ([2]; Volasertib, in words) was “no significant synergistic effect” and the “inhibitory effect on HT-29 cells, combined use with the PLK1 inhibitor compared with monotherapy” value ([3]; CYC140 or TAK-960, in words) was “stronger inhibitory effect”. For the same compound, the Maximum inhibition rate ([3]; CYC140 (Plogosertib) 0 nM) was 44.2%, the Minimum inhibition rate ([3]; CYC140 (Plogosertib) 0 nM) was -7.1% and the Maximum inhibition rate ([3]; TAK-960 0 nM) was 57.1%. It also gave a Minimum inhibition rate ([3]; TAK-960 0 nM) of 1.5%, a pIC50 ([3]; CYC140 (Plogosertib) 0 nM) of 7.80 and a pIC50 ([3]; CYC140 (Plogosertib) 1.6 nM) of 7.98. For the same compound, the inhibition ([3]; CYC140 (Plogosertib) 1.6 nM, read-out: Maximum inhibition rate) was 80.3%, the inhibition ([3]; CYC140 (Plogosertib) 1.6 nM, read-out: Minimum inhibition rate) was -0.7% and the pIC50 ([3]; CYC140 (Plogosertib) 8 nM) was 8.51. It also gave an inhibition ([3]; CYC140 (Plogosertib) 8 nM, read-out: Maximum inhibition rate) of 90.9%, an inhibition ([3]; CYC140 (Plogosertib) 8 nM, read-out: Minimum inhibition rate) of 0.4% and a pIC50 ([3]; TAK-960 0 nM) of 7.85. It also gave a pIC50 ([3]; TAK-960 8 nM) of 7.88, an inhibition ([3]; TAK-960 8 nM, read-out: Maximum inhibition rate) of 86.1% and an inhibition ([3]; TAK-960 8 nM, read-out: Minimum inhibition rate) of 7.5%. It also gave a pIC50 ([3]; TAK-960 40 nM) of 8.62, an inhibition ([3]; TAK-960 40 nM, read-out: Maximum inhibition rate) of 93.6% and an inhibition ([3]; TAK-960 40 nM, read-out: Minimum inhibition rate) of -4%. The “inhibitory effect on HT-29 cells, combined use with the PLK1 inhibitor compared with monotherapy” value ([4]; CYC140 or TAK-960, in words) was “stronger inhibitory effect”, the pIC50 ([4]; CYC140 (Plogosertib) 0.0001 nM) was 7.97 and the pIC50 ([4]; CYC140 (Plogosertib) 1.6 nM) was 8.08. It also gave a pIC50 ([4]; CYC140 (Plogosertib) 8 nM) of 8.16, a pIC50 ([4]; CYC140 (Plogosertib) 40 nM) of 9.05 and a pIC50 ([4]; TAK-960 0.0001 nM) of 8.00. The pIC50 ([4]; TAK-960 1.6 nM) was 8.07, the pIC50 ([4]; TAK-960 8 nM) was 8.77 and the pIC50 ([4]; TAK-960 40 nM) was 8.77. The “synergistic effect on HCT116 cell viability, combined use with the PLK1 inhibitor” value ([5]; CYC140 or TAK-960, in words) was “no significant synergistic effect”, the pIC50 ([5]; HCT116 cells, CYC140 (Plogosertib) 1.6 nM) was less than 6.40 and the pIC50 ([5]; HCT116 cells, CYC140 (Plogosertib) 8 nM) was less than 6.40. The pIC50 ([5]; HCT116 cells, CYC140 (Plogosertib) 40 nM) was less than 6.40, the pIC50 ([5]; HCT116 cells, TAK-960 0 nM) was less than 6.40 and the pIC50 ([5]; HCT116 cells, TAK-960 1.6 nM) was less than 6.40. It also gave a pIC50 ([5]; HCT116 cells, TAK-960 8 nM) of less than 6.40, a pIC50 ([5]; HCT116 cells, TAK-960 40 nM) of less than 6.40 and a pIC50 ([5]; Homo sapiens, HCT-116, HCT116 cells, CYC140 (Plogosertib) 0 nM) of less than 6.40. The “anti-proliferative activity against HCT116 cells, monotherapy” value ([5]; in words) was “did not exhibit anti-proliferative activity”, the “inhibitory effect on SK-OV-3 cells, combined use with the PLK1 inhibitor compared with monotherapy” value ([6]; Volasertib, in words) was “stronger inhibitory effect” and the pIC50 ([6]; Volasertib 0.0001 nM) was 7.81. The pIC50 ([6]; Volasertib 3.13 nM) was 7.89, the pIC50 ([6]; Volasertib 6.25 nM) was 7.91 and the pIC50 ([6]; Volasertib 12.5 nM) was 8.06. The pIC50 ([6]; Volasertib 25 nM) was 8.23, the pIC50 ([6]; Volasertib 50 nM) was 8.70 and the “inhibitory effect on HT-29 cells, combined use with the PLK1 inhibitor compared with monotherapy” value ([7]; Volasertib, in words) was “stronger inhibitory effect”. For the same compound, the pIC50 ([7]; Volasertib 0.0001 nM) was 7.96, the pIC50 ([7]; Volasertib 3.13 nM) was 8.10 and the pIC50 ([7]; Volasertib 6.25 nM) was 8.23. The pIC50 ([7]; Volasertib 12.5 nM) was 8.60 and the pIC50 ([7]; Volasertib 25 nM) was 9.40.
